US20260115314A1, “PREVENTION AND/OR TREATMENT OF CARDIAC DAMAGE” (priority 2022, published 2026)
Where no end group is shown, it is not given here.

Key:
[1] = tested on: NF-κB; experiment: NF-κB (p65) nuclear translocation in LPS-stimulated RAW 264.7 macrophages, confocal microscopy; type: cell-based; settings: RAW 264.7 cells, NIL10, co-incubated with 5 μM STATTIC
Description: (§1) A. Confocal microscopy detection of NF-κB (p65) in RAW 264.7 cells stimulated with 500 μM LPS or in combination with NIL10. Nuclei were stained with DAPI. […] (N=3, results expressed as Mean±SD. *P<0.05 LPS/NIL10 vs LPS/NIL10SC). […] Confocal microscopy detection as in A, in which STATTIC, a pharmacological inhibitor of STAT3 was incubated. Arrows point nuclear or cytoplasmic localization of p65. Lower panels: immunoblot detection of iNOS in cells as in C. (N=3, results expressed as Mean±SD. *P<0.03 LPS vs LPS/NIL10 **P<0.05 LPS/STATTIC vs LPS/NIL10SC/STATTIC. ***P<0.001 NIL10/STATIC vs LPS/NIL10/STATIC).
(§2) The expression of the readout inducible nitric oxide synthase (iNOS) by pro-inflammatory signals was also assayed.

[2] = tested on: inducible nitric oxide synthase (iNOS); experiment: Immunoblot of iNOS in LPS-stimulated RAW 264.7 macrophages; type: cell-based; settings: NIL10 plus STATTIC
Description: as §1, §2

[3] = biological target: T1, IL-10R (Mus musculus, UniProt Q61727); experiment: Confocal microscopy colocalization of nanoparticles with IL-10R in RAW 264.7 macrophages; type: binding; settings: RAW 264.7 cells, rhodamine nanoparticle vs FITC anti-IL-10R
T1 construct: endogenous in cells; host or cells: RAW 264.7 macrophages
T1 sequence (Q61727 17-575): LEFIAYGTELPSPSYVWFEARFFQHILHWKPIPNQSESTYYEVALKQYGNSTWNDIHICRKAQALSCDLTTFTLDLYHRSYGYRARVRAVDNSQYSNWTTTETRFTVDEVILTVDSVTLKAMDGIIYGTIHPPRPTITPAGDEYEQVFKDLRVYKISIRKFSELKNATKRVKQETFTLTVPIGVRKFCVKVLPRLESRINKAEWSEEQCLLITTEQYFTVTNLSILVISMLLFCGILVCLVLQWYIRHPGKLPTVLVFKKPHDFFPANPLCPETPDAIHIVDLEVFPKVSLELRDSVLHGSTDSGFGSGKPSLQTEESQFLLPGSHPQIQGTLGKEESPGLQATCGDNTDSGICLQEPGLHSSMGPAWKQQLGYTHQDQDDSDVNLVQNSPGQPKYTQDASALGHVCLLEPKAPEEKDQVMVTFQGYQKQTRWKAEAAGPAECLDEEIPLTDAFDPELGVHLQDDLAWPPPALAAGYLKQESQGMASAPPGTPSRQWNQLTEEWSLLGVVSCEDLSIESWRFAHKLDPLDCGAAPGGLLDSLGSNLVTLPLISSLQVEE
Description: FIG. 1. NIL10 binds to IL-10R in RAW 264.7 cells. A. Nanoparticle composition of NIL10 and NIL10SC. B. Z-potential, longitudinal and transversal relaxivities of NIL10 and NIL10SC nanoparticles. C. Bright field and confocal microscopy sections of RAW 264.7 macrophages, detecting rhodamine (red) containing NIL10 nanoparticles. D,E Colocalization of NIL10 (D) (rhodamine, red) or NIL10SC (E) with IL-10R (FICT, green) in confocal microscopy sections of RAW 264.7 cells incubated with NIL10 and anti-IL-10R specific antibody. Merged panel show co-localization of both signals. Nuclei were stained with Hoechst. Right panel: colocalization analysis with Image J co-localization plugin software, in which white dots correspond to co-localization (N=3).
To study the specificity of nanoparticles, we first incubated NIL10 (FIG. 1A, B) in RAW 264.7 macrophages, detecting rhodamine-containing nanoparticles by confocal microscopy (FIG. 1C).

[4] = tested on: mice subjected to IR; experiment: LVEF by echocardiography in wild type mice subjected to IR; type: in vivo; settings: 1 mg/kg 24 hours after IR, value NIL10 is compared against, day not given
Excerpt: FIG. 3. NIL10 induces cardiac protection in mice subjected to IR. A. Outline of the proceedings performed. B. Representative electrocardiogram, showing ST-elevation after LAD occlusion. C. Left ventricle ejection fraction (LVEF) of wild type mouse hearts at the times indicated after IR and injected with NIL10 or NIL10SC as in A. N=10 mice/group. Results expressed as mean±SD. *P<0.03 NIL10 vs NIL10SC day 7. #P<0.05 NIL10 vs NIL10SC day 3. D. LVEF in IL-10 knockout mice. N=10 mice/group. Results expressed as mean±SD. *P<0.01 NIL10 vs NIL10SC day 7. #P<0.05 NIL10 vs NIL10SC day 3. E. LVEF in IL-10 receptor knockout mice. N=10 mice/group. Results expressed as mean±SD.
20 male twelve-week-old wild type, IL10 knock-out and IL10RA knock-out mice C57/BL6 were anesthetized by inhaled 3% sevoflurane and oxygen with a flow rate of 0.4 L/min until loss of righting reflex. Then, endotracheal intubation was perform using an intubation cannula in order to carry out artificial ventilation (tidal volume: 260 μL/stroke, ventilation rate: 130 strokes per minute). The fourth left intercostal space was opened and widened using chest mice retractors. Left ventricle was exposed and LAD was occluded for 30 min close by using a 6-0 silk suture and 1 mm tube. Reperfusion was performed by ligation release. After the procedure, the chest was closed, negative pressure restored, and the skin sutured. […]

[5] = tested on: mouse hearts subjected to IR; experiment: Hematoxylin/Eosin and Masson trichrome staining of mouse heart sections after IR; type: in vivo, mice; settings: by day 7 after IR
Excerpt: FIG. 4. Hematoxylin and Eosin staining of mouse hearts. Heart sections of mice subjected to IR and injected with NIL10 or NIL10SC and collected by days 3 (A) or 7 (B) after IR. N=10 mice/group. From left to right: 2×, 20×, 40×. *P<0.05 D3; **P<0.01D7.
FIG. 5. NIL10 reduce heart fibrosis in response to IR. A. Representative immunoblot of MMP9 from healthy (H) or necrotic (N) areas of mouse hearts after 7 days of IR and injected with NIL10 or NIL10SC. N=10 mice/group. Mean±SD. *P<0.001 NIL10 vs NIL10SC necrotic areas. B. Masson Trichrome staining of heart sections from mice injected with NIL10 or NIL10SC, after 3- or 7-days post IR (N=10 mice/group). *P<0.05 D3; **P<0.03 D7.
20 male twelve-week-old wild type, IL10 knock-out and IL10RA knock-out mice C57/BL6 were anesthetized by inhaled 3% sevoflurane and oxygen with a flow rate of 0.4 L/min until loss of righting reflex. Then, endotracheal intubation was perform using an intubation cannula in order to carry out artificial ventilation (tidal volume: 260 μL/stroke, ventilation rate: 130 strokes per minute). The fourth left intercostal space was opened and widened using chest mice retractors. Left ventricle was exposed and LAD was occluded for 30 min close by using a 6-0 silk suture and 1 mm tube. […]
Heart morphology was visualized by Hematoxylin/Eosin staining and collagen deposition was detected by Masson's trichrome staining in mice and pigs.

[6] = tested on: pigs subjected to IR; experiment: Evans Blue/TTC staining of necrotic area in pig hearts after IR; type: in vivo; settings: 1 mg/kg, after 7 days of IR, EvansBlue/TTC
Excerpt: FIG. 6. NIL10 induces cardiac protection in pigs subjected to IR. A. Evans blue/TTC staining (see methods for details) of pig heart sections (from apex to base) after 7 days of IR, showing healthy tissue (blue), the area at risk (red) and the necrotic areas (white). B. Measurement of necrotic areas of the hearts, represented as a percentage respect to the area at risk (Mean±SD. *P<0.001 NIL10 vs NIL10SC, at day 7 post IR). C. Left ventricle ejection fraction of hearts from pigs injected with NIL10 or NIL10SC after 7 days of IR (Mean±SD. *P<0.001 NIL10 vs NIL10SC). D. Hematoxylin and Eosin staining of healthy and necrotic heart sections from pigs injected with NIL10 or NIL10SC after 7 days of IR. E. Masson Trichrome staining of the same hearts as in D. (N=10 pigs/group).
20 male Yorkshire pigs (30±4 kg) were housed 1 week preceding the surgery to avoid unease or stress associated with the new environment. Prior to the surgical intervention, animals were anesthetized with intramuscular ketamine 10 mg/kg and midazolam 0.5 mg/kg.
Anesthesia was induced by inhaled sevoflurane and maintained with continuous infusion of propofol 2 mL/kg/h, fentanyl 50 μg/kg/h, and diazepam 10 μg/kg/h. […]

[7] = tested on: M2 CD68+/CD206+ macrophages; experiment: Flow cytometry of M2 macrophage populations in mouse hearts after IR; type: in vivo, mice; settings: cell extracts from necrotic areas of mouse hearts, 3 and 7 days of IR
Excerpt: FIG. 7. NIL10 induces M2 macrophage polarization in the hearts of mice subjected to IR. A. Flow cytometry analysis of macrophage populations in mouse hearts after 3 and 7 days of IR. The percentage of M2 CD68+/CD206+ population were selected from the necrotic and at-risk areas of the hearts. B. Gating strategy used to identify macrophage-cell subsets in the health and infarcted mouse heart. A sequential getting strategy was first used to identify M2 population expressing specific macrophage marker CD68, followed by the identification of the population with overlapping expression patterns (CD68/CD206) (N=10 mice/group). Differences between groups were compared using one-way ANOVA. **P<0.01. ***P<0.001. ****P<0.0001.
Whole mouse hearts were mashed in complete DMEM (10% FBS, penicillin/streptomycin) through a 100-μm cell strainer. ACK Lysing Buffer was added to the single-cell suspension and spun down at 350 g for 5 minutes. The ACK was washed out with 50 mL of washing buffer (1% FBS), and cells were incubated with 1:100 anti-EMMPRIN, anti-CD68 and anti-CD206 antibodies. All flow cytometry samples were assayed in a MACSQuant Analyzer Flow Cytometer and analyzed with the Graphpad Prism software package.

Row | Compound | NIL10-induced cytoplasmic localization of NF-κB [1] | NIL10 inhibition of iNOS expression in the presence of STATTIC [2] | Colocalization with the IL-10R [3] | LVEF (comparator value) [4] | extension of fibrosis (Masson Trichrome) [5] | necrotic area [6] | presence of M2-resolving macrophages [7]
1 | O=[N+]([O-])c1ccc2c(c1)S(=O)(=O)C=C2 [STATTIC] | prevented | reversed |  |  |  |  | 
2 | NIL10SC: nanoparticle conjugated with the same peptide in a scrambled orientation (CANYRMITKM); control, does not bind IL10R (also: conjugated to nanoparticle (site not given here)) |  |  | no binding | 41.5%±4.33 | fibrotic lesions were widespread | 55±7.34 percentage respect to the area | takes 7 days to detect a similar effect
